pIC50: −log10 of the molar value.

As usually defined, the pIC50 is the IC50 on a negative log10 scale, so that one unit is a factor of ten. Lower therefore signals a large IC50.

For the assay, the target named is T1, MAGL (Homo sapiens, UniProt Q99685).
T1 sequence (Q99685 1-303): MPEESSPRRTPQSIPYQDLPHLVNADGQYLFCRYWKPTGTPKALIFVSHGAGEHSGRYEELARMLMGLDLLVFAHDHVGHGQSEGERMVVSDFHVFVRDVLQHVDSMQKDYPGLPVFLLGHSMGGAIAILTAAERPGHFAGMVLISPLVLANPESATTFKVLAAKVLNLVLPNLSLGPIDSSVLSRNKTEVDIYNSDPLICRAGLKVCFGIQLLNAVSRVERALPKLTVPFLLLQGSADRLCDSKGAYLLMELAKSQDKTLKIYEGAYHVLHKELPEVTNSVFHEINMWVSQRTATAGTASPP
In words: 2-AG assay: MAGL inhibitory activity by hydrolysis of 2-arachidonoylglycerol to arachidonic acid, mass spectrometry. To be noted: 2-AG assay (values marked [b]). The format is biochemical. The method in brief: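 Hydrolysis of 8 μM 2-arachidonoylglycerol by […] was run for 30 min at RT after a 15 min compound preincubation, in Tris/EDTA/Tween buffer. Test compounds spanned […]. The product was measured by online SPE-MS/MS (transitions 303.1→259.1 and 311.1→267.0), and activity was derived from the arachidonic acid/d8-arachidonic acid signal ratio.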
`COc1cc(C(=O)N2CCN(c3nc4nc(C)ccc4o3)CC2)ccc1-c1cn(CC(C)(C)C)nn1` [Example 239, (3-methoxy-4-(1-neopentyl-1H-1,2,3-triazol-4-yl)phenyl)(4-(5-methyloxazolo[4,5-b]pyridin-2-yl)piperazin-1-yl)methanone] showed a pIC50 of 7.89.
For `COc1cc(C(=O)N2CCN(c3nc4nc(C)ccc4o3)CC2)ccc1-c1cnn(CC(C)(C)C)n1` [Example 240, (3-methoxy-4-(2-neopentyl-2H-1,2,3-triazol-4-yl)phenyl)(4-(5-methyloxazolo[4,5-b]pyridin-2-yl)piperazin-1-yl)methanone], the pIC50 was 8.70.
As for `CC(C)(C)Cn1cc(-c2ncc(C(=O)N3CCN(c4nc5nc(Cl)ccc5o4)CC3)cc2F)nn1` [Example 241, (4-(5-chlorooxazolo[4,5-b]pyridin-2-yl)piperazin-1-yl)(5-fluoro-6-(1-neopentyl-1H-1,2,3-triazol-4-yl)pyridin-3-yl)methanone], the pIC50 is 7.57.
The value for `CC(C)(C)Cn1nncc1-c1ncc(C(=O)N2CCN(c3nc4nc(Cl)ccc4o3)CC2)cc1F` [Example 242, (4-(5-chlorooxazolo[4,5-b]pyridin-2-yl)piperazin-1-yl)(5-fluoro-6-(1-neopentyl-1H-1,2,3-triazol-5-yl)pyridin-3-yl)methanone] was 5.08; that for `CC(C)(C)Cn1ncc(-c2ncc(C(=O)N3CCN(c4nc5nc(Cl)ccc5o4)CC3)cc2F)n1` [Example 243, (4-(5-chlorooxazolo[4,5-b]pyridin-2-yl)piperazin-1-yl)(5-fluoro-6-(2-neopentyl-2H-1,2,3-triazol-4-yl)pyridin-3-yl)methanone] was 7.60.
`Cc1ccc2oc(N3CCN(C(=O)c4cnc(-c5cn(CC(C)(C)C)nn5)c(F)c4)CC3)nc2n1` [Example 244, (5-fluoro-6-(1-neopentyl-1H-1,2,3-triazol-4-yl)pyridin-3-yl)(4-(5-methyloxazolo[4,5-b]pyridin-2-yl)piperazin-1-yl)methanone]: the pIC50 was 7.30.
The value for `Cc1ccc2oc(N3CCN(C(=O)c4cnc(-c5cnn(CC(C)(C)C)n5)c(F)c4)CC3)nc2n1` [Example 245, (5-fluoro-6-(2-neopentyl-2H-1,2,3-triazol-4-yl)pyridin-3-yl)(4-(5-methyloxazolo[4,5-b]pyridin-2-yl)piperazin-1-yl)methanone] was 7.24; that for `Cc1ccc2oc(N3CCN(C(=O)c4cnc(-c5cnnn5CC(C)(C)C)c(F)c4)CC3)nc2n1` [Example 246, (5-fluoro-6-(1-neopentyl-1H-1,2,3-triazol-5-yl)pyridin-3-yl)(4-(5-methyloxazolo[4,5-b]pyridin-2-yl)piperazin-1-yl)methanone] was 5.88.
`Cc1cc(C(=O)N2CCN(c3nc4nc(Cl)ccc4o3)CC2)cnc1-c1cnn(CC(C)(C)C)c1` [Example 247, [4-(5-chloro-[1,3]oxazolo[4,5-b]pyridin-2-yl)piperazin-1-yl]-[6-[1-(2,2-dimethylpropyl)pyrazol-4-yl]-5-methylpyridin-3-yl]methanone] had a pIC50 of 8.15.
`Cc1ccc2oc(N3CCN(C(=O)c4cnc(-c5cnn(CC(C)(C)C)c5)c(C)c4)CC3)nc2n1` [Example 248, [6-[1-(2,2-dimethylpropyl)pyrazol-4-yl]-5-methylpyridin-3-yl]-[4-(5-methyl-[1,3]oxazolo[4,5-b]pyridin-2-yl)piperazin-1-yl]methanone] showed a pIC50 of 7.85.
In the case of `O=C(N1CCN(c2nc3nc(Cl)ccc3o2)CC1)N1CC(C#Cc2c(Cl)cccc2Cl)C1` [Example 249, (4-(5-chlorooxazolo[4,5-b]pyridin-2-yl)piperazin-1-yl)(3-((2,6-dichlorophenyl)ethynyl)azetidin-1-yl)methanone], the pIC50 is 7.66.
`O=C(N1CCN(c2nc3nc(Cl)ccc3o2)CC1)N1CC(C#Cc2ccc(F)cc2Cl)C1` [Example 250, [3-[2-(2-chloro-4-fluorophenyl)ethynyl]azetidin-1-yl]-[4-(5-chloro-[1,3]oxazolo[4,5-b]pyridin-2-yl)piperazin-1-yl]methanone] gave a pIC50 of 7.60.

For the origin of these results see patent publication US20220135591A1, “HETEROCYCLIC COMPOUNDS AS INHIBITORS OF MONOACYLGLYCEROL LIPASE (MAGL)” (Hoffmann-La Roche Inc., priority 2019, published 2022).
